Results published in patent US6680323B2, “Dihydropyrimidines and uses thereof” (Synaptic Pharmaceutical Corporation, priority 1998, dated 2004).
Counter-ions that a name gives are not always drawn.

How the values were obtained:
[1] = molecular target: T1, human α1b receptor (Homo sapiens, UniProt P35368); assay: Radioligand binding ([3H]prazosin) at cloned human α1b receptor; conditions: membranes of transfected LM(tk−) cells, [3H]prazosin 0.5 nM; read-out: Binding affinity hα1b
T1 construct: The entire coding region of α1b (1563 bp); expressed in transfected cells
T1 sequence (P35368 1-520): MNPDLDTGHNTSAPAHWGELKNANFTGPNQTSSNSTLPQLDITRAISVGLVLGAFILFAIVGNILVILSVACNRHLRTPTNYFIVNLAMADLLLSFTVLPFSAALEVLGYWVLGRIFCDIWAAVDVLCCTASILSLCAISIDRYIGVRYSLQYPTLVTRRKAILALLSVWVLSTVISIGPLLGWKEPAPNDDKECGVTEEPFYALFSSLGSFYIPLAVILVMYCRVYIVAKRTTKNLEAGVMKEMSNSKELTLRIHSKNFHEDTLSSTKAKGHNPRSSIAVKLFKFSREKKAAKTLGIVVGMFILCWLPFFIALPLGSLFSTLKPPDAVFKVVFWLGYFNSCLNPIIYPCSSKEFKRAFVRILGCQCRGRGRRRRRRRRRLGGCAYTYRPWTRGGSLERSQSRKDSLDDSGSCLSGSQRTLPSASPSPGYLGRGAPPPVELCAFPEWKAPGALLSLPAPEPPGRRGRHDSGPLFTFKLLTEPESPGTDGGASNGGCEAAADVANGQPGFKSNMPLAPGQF
Experimental: The activity of compounds at the different human receptors was determined in vitro using cultured cell lines that selectively express the receptor of interest. These cell lines were prepared by transfecting the cloned cDNA or cloned genomic DNA or constructs containing both genomic DNA and cDNA encoding the human α-adrenergic receptors as follows:
α1b Human Adrenergic Receptor
The entire coding region of α1b (1563 bp), including 200 base pairs and 5′ untranslated sequence (5′ UT) and 600 bp of 3′ untranslated sequence (3′ UT), was cloned into the EcoRI site of pCEXV-3 eukaryotic expression vector.
The construct involved ligating the full-length containing EcoRI brainstem cDNA fragment from λ ZapII into the expression vector. Stable cell lines were selected as described above. The cell line used herein was designated L-α1B and was deposited with the American Type Culture Collection, 12301 Parklawn Drive, Rockville, Md. 20852, U.S.A. under the provisions of the Budapest Treaty for the International Recognition of the Deposit of Microorganisms for the Purposes of Patent Procedure. The cell line L-α1B was accorded ATCC Accession No. CR 11139, on Sep. 29, 1992.
Radioligand Binding Assays for α1 Receptors
Transfected cells from culture flasks were scraped into 5 ml of 5 mM Tris-HCl, 5 mM EDTA, pH 7.5, and lysed by sonication. The cell lysates were centrifuged at 1000 rpm for 5 min at 4° C., and the supernatant was centrifuged at 30,000×g for 20 min at 4° C. The pellet was suspended in 50 mM Tris-HCl, 1 mM MgCl2, and 0.1% ascorbic acid at pH 7.5. Binding of the α1 antagonist [^3H]prazosin (0.5 nM, specific activity 76.2 Ci/mmol) to membrane preparations of LM(tk−) cells was done in a final volume of 0.25 ml and incubated at 37° C. for 20 min. Nonspecific binding was determined in the presence of 10 μM phentolamine. The reaction was stopped by filtration through GF/B filters using a cell harvester. Inhibition experiments, routinely consisting of 7 concentrations of the tested compounds, were analyzed using a non-linear regression curve-fitting computer program to obtain Ki values.

[2] = molecular target: T2, human α2a receptor (Homo sapiens, UniProt P08913); assay: Competition binding ([3H]rauwolscine) at cloned human α2a receptor; conditions: transfected LM(tk−) cells, [3H]rauwolscine 0.5 nM; read-out: Binding affinity hα2a
T2 construct: expressed in transfected cells
T2 sequence (P08913 1-465): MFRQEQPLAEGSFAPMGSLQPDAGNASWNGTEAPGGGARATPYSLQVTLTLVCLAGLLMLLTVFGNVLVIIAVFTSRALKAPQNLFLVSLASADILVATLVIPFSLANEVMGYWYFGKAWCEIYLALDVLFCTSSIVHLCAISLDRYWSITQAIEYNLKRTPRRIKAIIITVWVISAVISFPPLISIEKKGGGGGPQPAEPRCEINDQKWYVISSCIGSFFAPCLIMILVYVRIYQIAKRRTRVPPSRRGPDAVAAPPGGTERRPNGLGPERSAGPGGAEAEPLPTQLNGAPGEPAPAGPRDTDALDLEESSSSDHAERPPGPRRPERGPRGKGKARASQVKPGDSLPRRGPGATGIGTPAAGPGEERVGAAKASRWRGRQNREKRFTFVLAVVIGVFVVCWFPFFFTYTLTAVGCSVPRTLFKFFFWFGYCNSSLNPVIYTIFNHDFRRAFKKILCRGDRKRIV
Excerpt: (§1) α2 Human Adrenergic Receptors
(§2) To determine the potency of α1 antagonists at the α2 receptors, LM(tk−) cell lines stably transfected with the genes encoding the α2a, α2b, and α2c receptors were used. The cell line expressing the α2a receptor is designated L-α2A, and was deposited on Nov. 6, 1992 under ATCC Accession No. CRL 11180. The cell line expressing the α2b receptor is designated L-NGC-α2B, and was deposited on Oct. 25, 1989 under ATCC Accession No. CRL10275. The cell line expressing the α2c receptor is designated L-α2C, and was deposited on Nov. 6, 1992 under ATCC Accession No. CRL-11181. All the cell lines were deposited with the American Type Culture Collection, 12301 Parklawn Drive, Rockville, Md. 20852, U.S.A. under the provisions of the Budapest Treaty for the International Recognition of the Deposit of Microorganisms for the Purposes of Patent Procedure. Cell lysates were prepared as described above (see Radioligand Binding Assays), and suspended in 25 mM glycylglycine buffer (pH 7.6 at room temperature). Equilibrium competition binding assay were performed using [3H]rauwolscine (0.5 nM), and nonspecific binding was determined by incubation with 10 μM phentolamine. The bound radioligand was separated by filtration through GF/B filters using a cell harvester.

[3] = molecular target: T3, human α2b receptor (Homo sapiens, UniProt P18089); assay: Competition binding ([3H]rauwolscine) at cloned human α2b receptor; conditions: transfected LM(tk−) cells, [3H]rauwolscine 0.5 nM; read-out: Binding affinity hα2b
T3 construct: expressed in transfected cells
T3 sequence (P18089 1-450): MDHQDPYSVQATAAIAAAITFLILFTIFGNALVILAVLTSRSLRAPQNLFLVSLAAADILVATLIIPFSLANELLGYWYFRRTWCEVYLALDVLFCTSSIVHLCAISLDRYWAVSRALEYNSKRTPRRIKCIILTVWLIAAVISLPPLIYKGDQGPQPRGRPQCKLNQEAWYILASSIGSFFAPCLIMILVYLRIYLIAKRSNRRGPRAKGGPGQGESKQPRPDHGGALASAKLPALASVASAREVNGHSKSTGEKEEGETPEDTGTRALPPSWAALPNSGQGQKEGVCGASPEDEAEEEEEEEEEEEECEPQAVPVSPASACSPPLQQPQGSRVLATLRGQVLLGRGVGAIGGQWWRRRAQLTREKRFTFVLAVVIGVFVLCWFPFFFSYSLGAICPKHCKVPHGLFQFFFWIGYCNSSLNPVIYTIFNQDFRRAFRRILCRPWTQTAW
Excerpt: as §1, §2

[4] = molecular target: T4, human α2c receptor (Homo sapiens, UniProt P18825); assay: Competition binding ([3H]rauwolscine) at cloned human α2c receptor; conditions: transfected LM(tk−) cells, [3H]rauwolscine 0.5 nM; read-out: Binding affinity hα2c
T4 construct: expressed in transfected cells
T4 sequence (P18825 1-462): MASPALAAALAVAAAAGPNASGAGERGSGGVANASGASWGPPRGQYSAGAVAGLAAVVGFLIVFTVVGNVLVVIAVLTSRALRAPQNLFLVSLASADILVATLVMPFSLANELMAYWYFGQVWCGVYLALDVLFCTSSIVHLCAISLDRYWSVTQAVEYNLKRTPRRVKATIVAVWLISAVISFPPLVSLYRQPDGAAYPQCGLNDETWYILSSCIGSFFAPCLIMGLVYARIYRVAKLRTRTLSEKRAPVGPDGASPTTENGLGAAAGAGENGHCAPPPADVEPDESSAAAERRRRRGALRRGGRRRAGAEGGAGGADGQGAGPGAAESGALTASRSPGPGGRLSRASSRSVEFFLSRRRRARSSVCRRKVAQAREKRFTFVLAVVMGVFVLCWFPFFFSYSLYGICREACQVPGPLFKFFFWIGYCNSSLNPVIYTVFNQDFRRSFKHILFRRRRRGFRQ
Excerpt: as §1, §2

melting point	SMILES	Ki [1]	Ki [2]	Ki [3]	Ki [4]
60 to 85 °C	COCC1=C(C(=O)OC)[C@H](c2ccc(F)c(F)c2)N(C(=O)NCCC[n+]2ccc(-c3ccccn3)cc2)C(=O)N1 (as salt: chloride) [Compound 3, 4-(2-Pyridyl)-1-{3-[5-carboxymethyl-4-methoxymethyl-2-oxo-6(S)-(3,4-difluorphenyl)-1,2,3,6-tetrahydropyrimidin-1-yl]carboxyaminopropyl}pyridinium chloride]				
90 to 95 °C	O=C1OCC2=C1C(c1ccc(F)c(F)c1)N(C(=O)NCCCN1CCC(c3ccccn3)CC1)C(=O)N2 (single isomer, unassigned; (+)) (as salt: hydrochloride) [Compound 8, (+)-1-3-{[4-(3,4-Difluorophenyl)-2,5-dioxo-1,2,5,7-tetrahydro-4H-furo[3,4-d]-pyrimidine-3-carbonyl]amino}-propyl-4-(2-pyridyl)-piperidine]				
	COCC1=C(CC(=O)O)C(c2ccc(F)c(F)c2)N(C(=O)NCCC[N+]2([O-])CCC(c3ccccn3)CC2)C(=O)N1 (single isomer, unassigned; (+)) [Compound 4, (+)-4-(2-Pyridyl)-1-{3-[5-carboxymethyl-4-methoxymethyl-2-oxo-6-(3,4-difluorphenyl)-1,2,3,6-tetrahydropyrimidin-1-ylcarbonylamino]propyl}piperidine-1-oxide]	1350 nM	22 µM	17 µM	8 µM
	COC(=O)C1=C(c2ccc(F)c(F)c2)N(C(=O)NCCCN2CCC(c3ccccn3)CC2)C(=O)NC1C(=O)O (single isomer, unassigned; (+)) [Compound 6, (+)-2-Oxo-3-{N-[4-(2-pyridyl)piperidin-1-yl]propyl}carboxamido-4-(3,4-difluorophenyl)-5-methoxycarbonyl-6-carboxy-1,2,3,6-tetrahydropyrimidine]	> 2000 nM	> 50 µM	37.6 µM	> 50 µM
